≈ marks a conversion by molar mass, not a printed value. Marks after values point to notes of the source that are not given here.
Columns and labels:
[1] = system: intracellular APEC O78, O2, and O1 in infected Caco-2, HD11, and THP1 cells; test: Intracellular survival assay, statements over all serotypes and cells; format: cell-based, Escherichia coli; conditions: Escherichia coli, 6 h, O78, O2 and O1; Caco-2, HD11, THP-1; 6 h; read-out: concentration clearing intracellular APEC
Description: (§1) Intracellular survival assay was conducted as described previously[28],[29] to determine the effect of cidal SMs on APEC survival in phagocytic (HD11, THP-1) and non-phagocytic (Caco-2) cells. Briefly, mid-logarithmic phase grown APEC O78, O1, and O2 were washed and adjusted to 1 × 10^7 CFU/mL in cell culture incomplete media (no FBS and antibiotics). One-hundred microlitres adjusted APEC suspension was added at multiplicity of infection (MOI) 10 to wells of 96-well cell culture plate containing cultured macrophage (HD11, THP-1) and epithelial cells (Caco-2) and incubated for 1 h and 3 h, respectively. […] The cells were then lysed with 100 µL of 0.1% Triton X-100 for 5 mins, serially diluted, and plated on LB agar plate to enumerate viable bacteria. The intracellular bacteria in SMs treated wells were compared with DMSO (1%) treated wells. Two independent experiments in duplicate wells for each concentration of SMs were conducted.

APEC O78 [2] = test: Loss of 260/280 nm absorbing materials assay; format: cell-based, Escherichia coli; conditions: 2X MBC, 1 h; for Absorbance 280 nm of treated supernatant: DMSO 2.58; for Absorbance 280 nm of treated supernatant / Absorbance 260 nm of treated supernatant: superscript a P < 0.05 vs DMSO; for Absorbance 260 nm of treated supernatant: DMSO 3.77
Description: (§2) Membrane permeability assays (crystal violet (CV) uptake and loss of 260/280 nm absorbing materials) were conducted as described previously. […] CV uptake was measured using the formula: (OD DMSO − OD SM/OD DMSO × 100). Two independent experiments in duplicates were conducted.

[3] = system: intracellular APEC O2 in HD11 cells; test: Intracellular survival assay; format: cell-based, Escherichia coli; conditions: for minimal effective concentration: Escherichia coli, O2, HD11, 6 h treatment, read-out: SMs intracellular APEC clearance concentration; for intracellular APEC clearance concentration as multiple of MIC (superscript): O2, HD11; for concentration at which the SM significantly (P < 0.01) reduced intracellular APEC (superscript of t-statistic): O2, HD11, 6 h
Description: as §1

[4] = system: intracellular APEC O2 in THP-1 cells; test: Intracellular survival assay; format: cell-based, Escherichia coli; conditions: for minimal effective concentration: Escherichia coli, O2, THP-1, 6 h treatment, read-out: SMs intracellular APEC clearance concentration; for concentration at which the SM significantly (P < 0.01) reduced intracellular APEC (superscript of t-statistic): O2, THP-1, 6 h
Description: as §1

[5] = system: intracellular APEC O78 in THP-1 cells; test: Intracellular survival assay; format: cell-based, Escherichia coli; conditions: for minimal effective concentration: Escherichia coli, O78, THP-1, 6 h treatment, read-out: SMs intracellular APEC clearance concentration; for intracellular APEC clearance concentration as multiple of MIC (superscript): O78, THP-1; for concentration at which the SM significantly (P < 0.01) reduced intracellular APEC (superscript of t-statistic): O78, THP-1, 6 h
Description: as §1

[6] = system: intracellular APEC O2 in Caco-2 cells; test: Intracellular survival assay; format: cell-based, Escherichia coli; conditions: for minimal effective concentration: Escherichia coli, O2, Caco-2, 6 h treatment, read-out: SMs intracellular APEC clearance concentration; for concentration at which the SM significantly (P < 0.01) reduced intracellular APEC (superscript of t-statistic): O2, Caco-2, 6 h
Description: as §1

[7] = system: intracellular APEC O78 in Caco-2 cells; test: Intracellular survival assay; format: cell-based, Escherichia coli; conditions: for minimal effective concentration: Escherichia coli, O78, Caco-2, 6 h treatment, read-out: SMs intracellular APEC clearance concentration; for intracellular APEC clearance concentration as multiple of MIC (superscript): O78, Caco-2; for concentration at which the SM significantly (P < 0.01) reduced intracellular APEC (superscript of t-statistic): O78, Caco-2, 6 h
Description: as §1

[8] = system: intracellular APEC O1 in Caco-2 cells; test: Intracellular survival assay; format: cell-based, Escherichia coli; conditions: for minimal effective concentration: Escherichia coli, O1, Caco-2, 6 h treatment, read-out: SMs intracellular APEC clearance concentration; for concentration at which the SM significantly (P < 0.01) reduced intracellular APEC (superscript of t-statistic): O1, Caco-2, 6 h
Description: as §1

[9] = system: intracellular APEC O78 in HD11 cells; test: Intracellular survival assay; format: cell-based, Escherichia coli; conditions: for minimal effective concentration: Escherichia coli, O78, HD11, 6 h treatment, read-out: SMs intracellular APEC clearance concentration; for intracellular APEC clearance concentration as multiple of MIC (superscript): O78, HD11; for concentration at which the SM significantly (P < 0.01) reduced intracellular APEC (superscript of t-statistic): O78, HD11, 6 h
Description: as §1

[10] = system: intracellular APEC O1 in HD11 cells; test: Intracellular survival assay; format: cell-based, Escherichia coli; conditions: for minimal effective concentration: Escherichia coli, O1, HD11, 6 h treatment, read-out: SMs intracellular APEC clearance concentration; for concentration at which the SM significantly (P < 0.01) reduced intracellular APEC (superscript of t-statistic): O1, HD11, 6 h
Description: as §1

[11] = system: intracellular APEC O1 in THP-1 cells; test: Intracellular survival assay; format: cell-based, Escherichia coli; conditions: for minimal effective concentration: Escherichia coli, O1, THP-1, 6 h treatment, read-out: SMs intracellular APEC clearance concentration; for concentration at which the SM significantly (P < 0.01) reduced intracellular APEC (superscript of t-statistic): O1, THP-1, 6 h
Description: as §1

APEC O35 = test: MIC and MBC determination in M63 media; format: cell-based; conditions: Escherichia coli
APEC O78-53 = test: MIC and MBC determination in M63 media; format: cell-based; conditions: Escherichia coli; APEC O78-53, M63 media
Description: (§3) One microlitre SM of each concentration was transferred to each well of a 96-well plate containing 100 µL of the 0.05 OD600 adjusted APEC O78 culture in M63 media. Growth was monitored in Sunrise - Absorbance microplate reader as described above. MIC was indicated by lowest concentration of SM with non-elevated OD600 measurement. MBC was determined by absence of APEC growth on LB agar plate following subculture. […] Two independent experiments were conducted.

APEC O78 [12] = test: Crystal violet (CV) uptake assay; format: cell-based, Escherichia coli; conditions: 2X MBC, 30 mins; P < 0.05, Student's t-test
Description: as §2

APEC O78 [13] = test: MIC and MBC determination in M63 media; format: cell-based, Escherichia coli; conditions: for MIC / MBC: Escherichia coli; for MBC: subculture on LB agar
Description: as §3

APEC O109 = test: MIC and MBC determination in M63 media; format: cell-based; conditions: Escherichia coli

| Compound | minimal effective concentration [1] [µM] | 280 nm absorbing materials in supernatant compared with DMSO (APEC O78 [2]) | Absorbance 280 nm of treated supernatant (APEC O78 [2]) | Absorbance 260 nm of treated supernatant (APEC O78 [2]) | minimal effective concentration [3] [µM] | intracellular APEC clearance concentration as multiple of MIC (superscript) [3] | concentration at which the SM significantly (P < 0.01) reduced intracellular APEC (superscript of t-statistic) [3] | minimal effective concentration [4] [µM] | concentration at which the SM significantly (P < 0.01) reduced intracellular APEC (superscript of t-statistic) [4] | minimal effective concentration [5] [µM] | intracellular APEC clearance concentration as multiple of MIC (superscript) [5] | concentration at which the SM significantly (P < 0.01) reduced intracellular APEC (superscript of t-statistic) [5] | minimal effective concentration [6] [µM] | concentration at which the SM significantly (P < 0.01) reduced intracellular APEC (superscript of t-statistic) [6] | minimal effective concentration [7] [µM] | intracellular APEC clearance concentration as multiple of MIC (superscript) [7] | concentration at which the SM significantly (P < 0.01) reduced intracellular APEC (superscript of t-statistic) [7] | minimal effective concentration [8] [µM] | concentration at which the SM significantly (P < 0.01) reduced intracellular APEC (superscript of t-statistic) [8] | minimal effective concentration [9] [µM] | further results |
| --- | --- | --- | --- | --- | --- | --- | --- | --- | --- | --- | --- | --- | --- | --- | --- | --- | --- | --- | --- | --- | --- |
| COc1cc(CNCCc2ccc3ccccc3c2)ccc1OCC(O)CN1CCCC1 (stereo not drawn) [SM2] | ≥ 100 | significantly (P < 0.05, Student’s t-test) increased | 2.86^a | 3.71 | 200 | b (2X MIC) | a (0.5X MIC) | 100 | b (1X MIC) | 100 | a (1X MIC) | a (0.5X MIC) | > 200 | b (1X MIC) | 100 | a (1X MIC) | a (0.5X MIC) | > 200 | a (0.5X MIC) | 100 | intracellular APEC clearance concentration as multiple of MIC (superscript) [9]: a (1X MIC); concentration at which the SM significantly (P < 0.01) reduced intracellular APEC (superscript of t-statistic) [9]: a (0.5X MIC); minimal effective concentration [10]: 200 µM; concentration at which the SM significantly (P < 0.01) reduced intracellular APEC (superscript of t-statistic) [10]: a (0.5X MIC); minimal effective concentration [11]: 200 µM; intracellular APEC clearance concentration as multiple of MIC (superscript) ([11]; O1, THP-1): b (2X MIC); concentration at which the SM significantly (P < 0.01) reduced intracellular APEC (superscript of t-statistic) [11]: a (0.5X MIC); MBC (APEC O35): 200 µM (≈ 86.9 µg/mL); MIC (APEC O35): 100 µM (≈ 43.5 µg/mL); MBC (APEC O78-53): 200 µM (≈ 86.9 µg/mL); MIC (APEC O78-53): 100 µM (≈ 43.5 µg/mL); uptake of crystal violet compared with DMSO (APEC O78 [12]): increased the uptake of crystal violet; MBC relative to MIC (APEC O78 [13]): identical to MIC; MIC (APEC O78 [13]): 100 µM (≈ 43.5 µg/mL); MBC (APEC O78 [13]): 100 µM (≈ 43.5 µg/mL); MBC (APEC O109): 200 µM (≈ 86.9 µg/mL); MIC (APEC O109): 100 µM (≈ 43.5 µg/mL) |
| COc1ccc(CCN(Cc2cc3c(cc2Cl)OCO3)CC2CCN(C)CC2)cc1 [SM11] | ≥ 100 | significantly (P < 0.05, Student’s t-test) increased | 2.89^a | 4.00^a | 200 | b (2X MIC) | a (0.5X MIC) | 100 | a (0.5X MIC) | 100 | a (1X MIC) | a (0.5X MIC) | 200 | b (1X MIC) | 100 | a (1X MIC) | b (1X MIC) | > 200 | b (1X MIC) | 100 | 260 nm absorbing materials in supernatant compared with DMSO (APEC O78 [2]): significantly (P < 0.05, Student’s t-test) increased; intracellular APEC clearance concentration as multiple of MIC (superscript) ([6]; O2, Caco-2): b (2X MIC); intracellular APEC clearance concentration as multiple of MIC (superscript) [9]: a (1X MIC); concentration at which the SM significantly (P < 0.01) reduced intracellular APEC (superscript of t-statistic) [9]: a (0.5X MIC); minimal effective concentration [10]: 200 µM; concentration at which the SM significantly (P < 0.01) reduced intracellular APEC (superscript of t-statistic) [10]: b (1X MIC); minimal effective concentration [11]: > 200 µM; concentration at which the SM significantly (P < 0.01) reduced intracellular APEC (superscript of t-statistic) [11]: b (1X MIC); MBC (APEC O35): 200 µM (≈ 86.2 µg/mL); MIC (APEC O35): 100 µM (≈ 43.1 µg/mL); MBC (APEC O78-53): 200 µM (≈ 86.2 µg/mL); MIC (APEC O78-53): 100 µM (≈ 43.1 µg/mL); uptake of crystal violet compared with DMSO (APEC O78 [12]): increased the uptake of crystal violet; MBC relative to MIC (APEC O78 [13]): identical to MIC; MIC (APEC O78 [13]): 100 µM (≈ 43.1 µg/mL); MBC (APEC O78 [13]): 100 µM (≈ 43.1 µg/mL); MBC (APEC O109): 200 µM (≈ 86.2 µg/mL); MIC (APEC O109): 200 µM (≈ 86.2 µg/mL) |

From publication PMC6193035, “Novel small molecules affecting cell membrane as potential therapeutics for avian pathogenic Escherichia coli” (Scientific Reports, 2018)
